These results are taken from patent publication US5856325A, “Benzotriazines, pharmaceutical compositions, and methods of using same” (Boehringer Mannheim GmbH, priority 1992, dated 1999).

Test [1] has as its target T1, human recombinant type II PLA2 (synovial PLA2) (Homo sapiens, UniProt P14555).
T1 sequence (P14555 21-144): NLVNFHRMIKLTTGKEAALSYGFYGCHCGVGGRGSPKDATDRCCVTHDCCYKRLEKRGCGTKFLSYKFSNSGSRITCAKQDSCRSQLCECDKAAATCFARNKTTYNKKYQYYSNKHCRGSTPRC
Description: Inhibition of the human recombinant type II PLA2 (synovial PLA2), in vitro. Type of test: biochemical. The source says:
a) Inhibition of the human recombinant type II PLA2) (=synovial PLA2)
As typical respresentative of A PLA2, there was selected for the testing the synovial PLA2 (dissertation of Rainer Muller, 1993; University of Regensburg).
As representative of the compounds I or Ia, respectively, there was investigated in more detail the compound from Example 1. In the following Table, there is given dosage-dependent the percentage in vitro inhibition of PLA2.

The subject of test [2] is collagen-induced arachidonic acid (AA) liberation from human thrombocytes. Description: Inhibition of the collagen-induced arachidonic acid (AA) liberation from human thrombocytes (3H-AA). Type of test: cell-based. The method, then: b) Inhibition of the collagen-induced arachidonic acid
(AA) liberation from human thrombocytes
As further indicator of a PLA2 inhibition, there is valid an inhibition of the AA liberation from thrombocytes. For this purpose, the thrombocytes are equilibrated with ^3 H-AA. This added radioactive arachidonic acid incorporates into membrane phospholipids. Subsequently, the thrombocytary PLA2 is activated via the collagen receptor and ^3 H-AA thus again liberated from the membrane phospholipids into the medium where it can be measured.

Consider `Nc1nc2ccccc2[n+]([O-])n1` [Example 1, 1,2,4-Benzotriazine-3-amine 1-oxide], for which the inhibition at 1 µg/mL in test [1] (1 μg/ml) was 43%. Also, the inhibition at 10 µg/mL in test [1] (10 μg/ml) stood at 60%; in test [2] (10 μg/ml, collagen-induced, human thrombocytes), 29%. The inhibition at 100 µg/mL came out at 99% in test [1] (100 μg/ml) and 91% in test [2] (100 μg/ml, collagen-induced, human thrombocytes). The “inhibition of the collagen-induced AA liberation, maximum” value in test [2] (dosage-dependent) is reported as “up to 91%”.

Usually inhibition stands for the share of the control response that was lost under treatment.
